Experimental findings from US8044053B2, “Sulfonamide substituted pyrazoline compounds, their preparation and use as CB1 modulators” (Laboratories del Dr. Esteve, S.A., priority 2006, dated 2011) are described below.

Counter-ions that a name gives are not always drawn.

For assay [1], the target named is CB1-receptor (UniProt P20272). Description: In-vitro determination of affinity (binding) to CB1-receptors, radioligand [3H]-CP55940. Also on record: % inh; 10^−7 M; compound at 10^−7 M; species or system human or rat. The following applies: compound at 10^−7 M. As to the method: (§1) I. In-Vitro Determination of Affinity to CB1/CB2-Receptors
(§2) The in-vitro determination of the affinity of the inventive substituted pyrazoline compounds to CB1/CB2-Rezeptors is carried out as described in the publication of Ruth A. Ross, Heather C. Brockie et al., “Agonist-inverse agonist characterisation at CB1 and CB2 cannabinoid receptors of L-759633, L759656 and AM630”, British Journal of Pharmacology, 126, 665-672, (1999), whereby the transfected human CB1 and CB2 receptors of Receptor Biology, Inc. are used. The radioligand used for both receptors is [^3H]-CP55940. The respective parts of the description is hereby incorporated by reference and forms part of the present disclosure.
(§3) Rat Cerebellum CB1 Binding
(§4) Binding affinity to CB1 receptor was evaluated according to a modification of the method described by Govaerts et al., Eur J Pharmac Sci 23, 233-243 (2004). The respective parts of the description is hereby incorporated by reference and forms part of the present disclosure.
(§5) Briefly, cerebellum from male wistar rats (250-300 g) were carefully dissected on ice and homogenates were prepared with Potter-Helveheim in a cold 50 mM Tris-HCl solution containing 5 mM MgCl2, 1 mM EDTA and 0.25 M sucrose, pH 7.4. The suspension was centrifuged at 1,000×g for 5 minutes. The supernatants were collected and centrifuged 50,000×g for 15 minutes. The resulting pellets were then resuspended in Tris-HCl buffer without sucrose, homogenised and incubated for 15 min at 37° C. in an orbital shaker bath and centrifuged again at 50,000×g for 15 min. Pellets were weighted, resuspended in Tris-HCl buffer without sucrose, homogenised with Ultraturrax at 13,500 rpm for 3×5 seconds and alicuoted in 0.9 ml volumes in Eppendorf tubes. Alicuotes were centrifuged at 20,800×g for 5 minutes, supernatants discarded and pellets were frozen at −80° C. until use. Total protein concentration was determined using the Bio-Rad Lowry method based kit. Competitive binding experiments were performed in presence of 1 nM [^3H]-CP 55,940 in siliconised glass tubes containing 100 μg protein/tube resuspended in 1 ml final volume of 50 mM Tris-HCl, 5 mM MgCl2, 1 mM EDTA, 0.5% (w/v) bovine serum albumin, pH 7.4. Compounds were present at various concentrations and the non specific binding was determined in the presence of 10 μM HU-210. After 1 hour incubation at 30° C., the suspension was rapidly filtered through 0.5% PEI pre-treated GF/B fiber filters on a 96-well harvester and washed 3 times with 3 ml ice-cold binding buffer without bovine serum albumin. Radioactivity on filters was measured with Wallac Winspectral 1414 counter by liquid scintillation in 6 ml Ecoscint H (National Diagnostics, U.K.). Assays were made in triplicates.
(§6) Binding data were analysed by non-linear regression with the software GraphPad Prism Version 3.03.
(§7) The binding of the pyrazoline compounds of general formulae I, Ia and Ib to CB1-receptors was determined according to the method described in the section Pharmacological Methods, Part I.

Assay [2] deals with CB1-receptor (UniProt P20272). The description is as above. The arrangement: IC50; Ki; species or system human or rat. As to conditions: Pharmacological Methods Part I. As to the method: as §1, §2, §3, §4, §5, §6, §7

In the case of `CCc1ccc(S(=O)(=O)NCC2=NN(c3ccc(Cl)cc3Cl)C(c3ccc(Cl)cc3)C2)cc1` (stereo not drawn) [Example 43, N-[5-(4-Chloro-phenyl)-1-(2,4-dichloro-phenyl)-4,5-dihydro-1H-pyrazol-3-ylmethyl]-4-ethyl-benzenesulfonamide], in assay [1], the “% inh. 10^−7 M” value was 26.7%.

`CCCCS(=O)(=O)NCC1=NN(c2ccc(Cl)cc2Cl)C(c2ccc(Cl)cc2)C1` (stereo not drawn) [Example 20, Butane-1-sulfonic acid [5-(4-chloro-phenyl)-1-(2,4-dichloro-phenyl)-4,5-dihydro-1H-pyrazol-3-ylmethyl]-amide]: the “% inh. 10^−7 M” value in assay [1] is 27.2%.

Consider `COc1cc(C)ccc1S(=O)(=O)NCC1=NN(c2ccc(Cl)cc2Cl)C(c2ccc(Cl)cc2)C1` (stereo not drawn) [Example 36, N-[5-(4-Chloro-phenyl)-1-(2,4-dichloro-phenyl)-4,5-dihydro-1H-pyrazol-3-ylmethyl]-2-methoxy-4-methyl-benzenesulfonamide], for which the “% inh. 10^−7 M” value in assay [1] is listed as 26.5%.

As for `O=S(=O)(CC1CCCCC1)NCC1=NN(c2ccc(Cl)cc2Cl)C(c2ccc(Cl)cc2)C1` (stereo not drawn) [Example 31, N-[5-(4-Chloro-phenyl)-1-(2,4-dichloro-phenyl)-4,5-dihydro-1H-pyrazol-3-ylmethyl]-C-cyclohexyl-methanesulfonamide], in assay [1], the “% inh. 10^−7 M” value came to 15.9%.

Take `Cc1ccc([N+](=O)[O-])cc1S(=O)(=O)NCC1=NN(c2ccc(Cl)cc2Cl)C(c2ccc(Cl)cc2)C1` (stereo not drawn) [Example 142, N-[5-(4-Chloro-phenyl)-1-(2,4-dichloro-phenyl)-4,5-dihydro-1H-pyrazol-3-ylmethyl]-2-methyl-5-nitro-benzenesulfonamide]: in assay [2], the IC50 was found to be 5.5 nM and the Ki is 2.3 nM.

In assay [2], `COc1ccc(C2CC(CNS(=O)(=O)c3cc(C)ccc3C)=NN2c2ccc(Cl)cc2Cl)cc1` (stereo not drawn) [Example 97, N-[1-(2,4-Dichloro-phenyl)-5-(4-methoxy-phenyl)-4,5-dihydro-1H-pyrazol-3-ylmethyl]-2,5-dimethyl-benzenesulfonamide] displayed an IC50 of 43.9 nM and a Ki of 18.4 nM.

For the molecule `Cc1ccc(F)cc1S(=O)(=O)NCC1=NN(c2ccc(Cl)cc2Cl)[C@@H](c2ccc(Cl)cc2)[C@H]1C` (racemic) [Example 73, cis-(4RS,5RS)-N-[5-(4-Chloro-phenyl)-1-(2,4-dichloro-phenyl)-4-methyl-4,5-dihydro-1H-pyrazol-3-ylmethyl]-5-fluoro-2-methyl-benzenesulfonamide], in assay [2], the IC50 came to 11.8 nM and the inhibition constant Ki is 5.3 nM.

Take `O=S(=O)(NCC1=NN(c2ccc(Cl)cc2Cl)C(c2ccc(Cl)cc2)C1)c1cc(C(F)(F)F)ccc1Cl` (stereo not drawn) [Example 81, 2-Chloro-N-[5-(4-chloro-phenyl)-1-(2,4-dichloro-phenyl)-4,5-dihydro-1H-pyrazol-3-ylmethyl]-5-trifluoromethyl-benzenesulfonamide]: in assay [2], the IC50 turned out to be 15.2 nM and the inhibition constant Ki was found to be 6.9 nM.

Take `CCOc1ccc(C2CC(CNS(=O)(=O)c3cc(C)ccc3C)=NN2c2ccc(Cl)cc2Cl)cc1` (stereo not drawn) [Example 103, N-[1-(2,4-Dichloro-phenyl)-5-(4-ethoxy-phenyl)-4,5-dihydro-1H-pyrazol-3-ylmethyl]-2,5-dimethyl-benzenesulfonamide]: in assay [2], the IC50 worked out at 12.1 nM and affinity was put at a Ki of 5.3 nM.

`CC(=O)Nc1ccc(S(=O)(=O)NCC2=NN(c3ccc(Cl)cc3Cl)C(c3ccc(Cl)cc3)C2)cc1Cl` (stereo not drawn) [Example 41, N-(2-Chloro-4-{[5-(4-chloro-phenyl)-1-(2,4-dichloro-phenyl)-4,5-dihydro-1H-pyrazol-3-ylmethyl]-sulfamoyl}-phenyl)-acetamide]: the “% inh. 10^−7 M” value in assay [1] came out at 8.2%.

Consider `Cc1ccc(C)c(S(=O)(=O)NCC2=NN(c3ccc(Cl)cc3Cl)[C@@H](c3ccc(Cl)cc3)C2)c1` [Example 69, (R)-N-[5-(4-Chloro-phenyl)-1-(2,4-dichloro-phenyl)-4,5-dihydro-1H-pyrazol-3-ylmethyl]-2,5-dimethyl-benzenesulfonamide], for which, in assay [2], the IC50 was found to be 36.7 nM and the inhibition constant Ki came to 16.2 nM.

In assay [2], `CCOc1ccc(C2CC(CNS(=O)(=O)c3cccc(F)c3)=NN2c2ccc(Cl)cc2Cl)cc1` (stereo not drawn) [Example 261, N-[1-(2,4-Dichloro-phenyl)-5-(4-ethoxy-phenyl)-4,5-dihydro-1H-pyrazol-3-ylmethyl]-3-fluoro-benzenesulfonamide] registered an IC50 of 9.8 nM and an inhibition constant Ki of 9.8 nM.

As for `CCOc1ccc(C2CC(CNS(=O)(=O)c3cc(C)c(Cl)cc3C)=NN2c2ccc(Cl)cc2Cl)cc1` (stereo not drawn) [Example 247, 4-Chloro-N-[1-(2,4-dichloro-phenyl)-5-(4-ethoxy-phenyl)-4,5-dihydro-1H-pyrazol-3-ylmethyl]-2,5-dimethyl-benzenesulfonamide], in assay [2], the IC50 was found to be 65.5 nM and the affinity corresponds to a Ki of 27.7 nM.

In the case of `COC(=O)CCc1ccc(S(=O)(=O)NCC2=NN(c3ccc(Cl)cc3Cl)C(c3ccc(Cl)cc3)C2)cc1` (stereo not drawn) [Example 35, 3-(4-{[5-(4-Chloro-phenyl)-1-(2,4-dichloro-phenyl)-4,5-dihydro-1H-pyrazol-3-ylmethyl]-sulfamoyl}-phenyl)-propionic acid methyl ester], the “% inh. 10^−7 M” value in assay [1] is reported as 8.5%.

With `CCOc1ccc(C2CC(CNS(=O)(=O)c3cc(F)ccc3F)=NN2c2ccc(Cl)cc2Cl)cc1` (stereo not drawn) [Example 99, N-[1-(2,4-Dichloro-phenyl)-5-(4-ethoxy-phenyl)-4,5-dihydro-1H-pyrazol-3-ylmethyl]-2,5-difluoro-benzenesulfonamide], in assay [2], the IC50 stood at 42.6 nM and the affinity corresponds to a Ki of 17.9 nM.

In assay [2], `O=S(=O)(NCC1=NN(c2ccc(Cl)cc2Cl)C(c2ccc(Cl)cc2)C1)c1cccnc1` (stereo not drawn) [Example 53, Pyridine-3-sulfonic acid [5-(4-chloro-phenyl)-1-(2,4-dichloro-phenyl)-4,5-dihydro-1H-pyrazol-3-ylmethyl]-amide hydrochloride] returned an IC50 of 88.2 nM and a Ki of 43.2 nM.

Turning to `O=S(=O)(NCC1=NN(c2ccc(Cl)cc2Cl)C(c2ccc(Cl)cc2)C1)c1ccc(OC(F)(F)F)cc1` (stereo not drawn) [Example 16, N-[5-(4-Chloro-phenyl)-1-(2,4-dichloro-phenyl)-4,5-dihydro-1H-pyrazol-3-ylmethyl]-4-trifluoromethoxy-benzenesulfonamide], in assay [1], the “% inh. 10^−7 M” value is 88.0%.

`CCOc1ccc(C2CC(CNS(=O)(=O)c3cccc(Cl)c3F)=NN2c2ccc(Cl)cc2Cl)cc1` (stereo not drawn) [Example 250, 3-Chloro-N-[1-(2,4-dichloro-phenyl)-5-(4-ethoxy-phenyl)-4,5-dihydro-1H-pyrazol-3-ylmethyl]-2-fluoro-benzenesulfonamide]: in assay [2], the IC50 worked out at 39.7 nM and the Ki came out at 16.6 nM.

Turning to `O=S(=O)(NCC1=NN(c2ccc(Cl)cc2Cl)C(c2ccc(Cl)cc2)C1)c1csc2ccccc12` (stereo not drawn) [Example 37, Benzo[b]thiophene-3-sulfonic acid [5-(4-chloro-phenyl)-1-(2,4-dichloro-phenyl)-4,5-dihydro-1H-pyrazol-3-ylmethyl]-amide], in assay [1], the “% inh. 10^−7 M” value came to 27.2%.

In assay [2], `O=[N+]([O-])c1cccc(S(=O)(=O)NCC2=NN(c3ccc(Cl)cc3Cl)C(c3ccc(Cl)cc3)C2)c1` (stereo not drawn) [Example 144, N-[5-(4-Chloro-phenyl)-1-(2,4-dichloro-phenyl)-4,5-dihydro-1H-pyrazol-3-ylmethyl]-3-nitro-benzenesulfonamide] came in with an IC50 of 55 nM and a Ki of 23.2 nM.

In assay [2], `COc1ccc(C2CC(CNS(=O)(=O)c3cc(Cl)ccc3F)=NN2c2ccc(Cl)cc2Cl)cc1` (stereo not drawn) [Example 94, 5-Chloro-N-[1-(2,4-dichloro-phenyl)-5-(4-methoxy-phenyl)-4,5-dihydro-1-pyrazol-3-ylmethyl]-2-fluoro-benzenesulfonamide] yielded a concentration for half-maximal inhibition (IC50) of 74 nM and a Ki of 33 nM.

Turning to `CCOc1ccc(C2CC(CNS(=O)(=O)c3ccccc3Br)=NN2c2ccc(Cl)cc2Cl)cc1` (stereo not drawn) [Example 249, 2-Bromo-N-[1-(2,4-dichloro-phenyl)-5-(4-ethoxy-phenyl)-4,5-dihydro-1H-pyrazol-3-ylmethyl]-benzenesulfonamide], in assay [2], the IC50 came out at 5.6 nM and the Ki worked out at 2.4 nM.

The IC50 is the concentration at which inhibition is half-maximal. Higher therefore signals lower potency. Usually Ki stands for the equilibrium dissociation constant of an inhibitor or competing ligand from its target. High values mean weaker binding, low ones tighter binding.
